In the experiment the test system is plasma cholesterol. Nature of the experiment: Cholesterol lowering in hypercholesterolemic rats. Format: in vivo. The note with it: for change in vivo at 0.5 mg/kg/day: Rattus norvegicus, po, read-out: % Cholesterol Lowering; for cholesterol lowering: 0.5 mg/kg/d orally.
The mark [1] stands for this setting: delivered p.o. (0.5 mg/kg/d), percentage change from pre-dose cholesterol.

Structures are written as SMILES. Where two headings read alike, the source gives them in different places.

Turning to `CC(C)c1cc(Oc2c(Br)cc(C[P@@]3(=O)OCC[C@@H](c4cccc(Cl)c4)O3)cc2Br)ccc1O` [Compound 13-9, Cis-(S)-2-[3,5-dibromo-4-(4′-hydroxy-3′-iso-propylphenoxy)benzyl]-4-(3-chlorophenyl)-2-oxo2λ^5-[1,3,2]-dioxaphosphonane], the change in vivo at 0.5 mg/kg/day under setting [1] was -10.9%. Where the note is “hypercholesterolemic rats”, the cholesterol lowering result is reported as “failed to demonstrate cholesterol lowering”.

With `CC(C)c1cc(Oc2c(I)cc(OC[P@@]3(=O)OCC[C@@H](c4cccc(Cl)c4)O3)cc2I)ccc1O` [Compound 13-10], under setting [1], the change in vivo at 0.5 mg/kg/day is -25.8%.

Regarding `CCOC(=O)[C@H](C)NP(=O)(COc1cc(C)c(Cc2ccc(O)c(C(C)CC)c2)c(C)c1)N[C@@H](C)C(=O)OCC` (stereo partly drawn) [Compound 15-4, di-N-(L-1-ethoxycarbonylethylamino)[3,5-dimethyl-4-(4′-hydroxy-3′-sec-butylbenzyl)phenoxy]methylphosphonamide], the change in vivo at 0.5 mg/kg/day under setting [1] was -39.6%.

Turning to `CCOC(=O)[C@H](C)NP(=O)(Cc1cc(Br)c(Oc2ccc(O)c(C(C)C)c2)c(Br)c1)N[C@@H](C)C(=O)OCC` [Compound 15-5, di-N-(L-1-ethoxycarbonylethylamino)[3,5-dibromo-4-(4′-hydroxy-3′-iso-propylphenoxy)benzyl]phosphonamide], the change in vivo at 0.5 mg/kg/day under setting [1] is -29.9%. Besides, for the setting “hypercholesterolemic rats”, the cholesterol lowering entry was “demonstrated a significant lowering of cholesterol”.

As for `CCOC(=O)[C@H](C)NP(=O)(COc1cc(Cl)c(Cc2ccc(O)c(C(C)C)c2)c(Cl)c1)N[C@@H](C)C(=O)OCC` [Compound 15-7], the “% Cholesterol Lowering” value under setting [1] is −29.1%.

For the compound `CCOC(=O)[C@H](C)NP(=O)(COc1cc(I)c(Oc2ccc(O)c(C(C)C)c2)c(I)c1)N[C@@H](C)C(=O)OCC` [Compound 15-8], the change in vivo at 0.5 mg/kg/day under setting [1] was -31.1%.

In the case of `CCOP(=O)(Cc1cc(Br)c(Oc2ccc(O)c(C(C)C)c2)c(Br)c1)OCC` [Compound 19-1, diethyl[3,5-dibromo-4-(4′-hydroxy-3′-iso-propylphenoxy)]benzylphosphonate], the change in vivo at 0.5 mg/kg/day was -6.6%. The cholesterol lowering entry (hypercholesterolemic rats) is recorded as “failed to demonstrate cholesterol lowering”.

Regarding `Cc1cc(OC[P@@]2(=O)OCC[C@@H](c3cccc(Br)c3)O2)cc(C)c1Cc1ccc(O)c(C(C)C)c1` [cis-13-2], for the setting “another experiment, hypercholesterolemic rats”, the “efficacy in lowering cholesterol” value was “not efficacious”.

These data come from patent publication US20090028925A1, “Novel Phosphinic Acid-Containing Thyromimetics” (priority 2005, published 2009).
